“And” between values parts separate entries of the source, which are not always exact repeats. Equal entries are not always repeated. Where two headings read alike, the source gives them in different places.
Legend:
Lp(a) = Lp(a) levels in cynomolgus monkeys; assay type: in vivo, cynomolgus monkey (Macaca fascicularis); design: key to Mean_pCFB_vs_Veh / Mean_pCFB_vs_Veh (Lp(a)): % change from pre-dose, treated group compared with vehicle; key to Mean_pCFB / Mean_pCFB (Lp(a)): % change in Lp(a) from before dosing; Lp(a): unit not given here; settings: for Lp(a): Fig 3b raw data; for Mean_pCFB / Mean_pCFB_vs_Veh: Lp(a), female cynomolgus monkeys; for maximum decrease of median Lp(a) levels / %Lp(a) max decrease (dose, mg/kg): cynomolgus monkeys; for maximum decrease of median Lp(a) levels: after 5 days; for %Lp(a) max decrease (dose, mg/kg): 14 days dosing
Method: Female or male Chinese Macaca fascicularis cynomolgus monkeys (as described in the figure legends) of unspecified ages with body weight ranging from 2.0 kg to 5.0 kg were housed in cages with a standard light cycle (12-h light, 12-h dark) at room temperature (20–26 °C); the relative humidity ranged from 30% to 70%. Monkeys were given fruits, vegetables or dietary enrichment as a form of environmental enrichment, and various cage enrichment devices. Purina Lab diet 5048C was provided BID and individual monkeys were identified by cage card. The monkeys were randomized to treatment groups by body weight and baseline plasma Lp(a) concentration, as determined by a commercially available Randox assay (Randox LP2757), using a BRAT for the study. In an example cynomolgus monkey study in which 39 monkeys were prescreened for baseline Lp(a) levels, the average Lp(a) level was 350 ± 57 µg ml^−1 (range 53–1,667 µg ml^−1). Monkeys were dosed orally with vehicle (purified water) or compounds QD or BID for 14 days, at dose levels and frequencies as previously described for each compound. Plasma samples were collected on days before dosing to establish baseline Lp(a) and after the morning dose during the study. Lp(a) levels were measured by an investigator who was blinded to group allocation using the Randox assay, and were quantified relative to the calibrator series (Randox LP3404). Data were analysed in GraphPad Prism v.9.5.1. The Lp(a) percentage change from before dosing in non-human primates was analysed by repeated measures ANOVA in SAS v.9.4 (SAS). At each time point, the Lp(a) percentage change for each treated group was compared with vehicle by the Bonferroni method.

[1] = Drug concentration in mouse blood after oral dosing; assay type: in vivo; settings: female, whole blood (dried blood spots), day 5, read-out: Drug concentration, 4-h time point
Method: The LPA gene (GenBank accession code NM_005577) encoding the human apo(a) protein with a signal peptide, one KIV type 1, six KIV type 2 repeats, one each of KIV types 3–10, one KV and one protease domain was subcloned into a transgenic vector containing a mouse albumin promoter cassette and a human growth hormone polyadenylation signal. The transgenic mouse line was generated by pronucleus injection of the LPA transgenic vector. Eight individual transgenic founder mice were assessed for germline transmission of LPA by genotyping and assessment of the levels of apo(a) in the plasma. Positive founder mice were crossed with ApoB100 transgenic mice (Taconic model 1004), and the resulting mouse line nomenclature (B6.SJL-Tg(APOB)1102Sgy Tg(Alb-LPA)32Arte) was selected on the basis of the confirmation of germline transmission, the identification of LPA and huApoB100 transgenes and the levels of Lp(a) in the plasma. Mice hemizygous for both transgenes were used for pharmacology studies. The studies were conducted in female Lp(a) double transgenic mice (age around 7–17 months). Mice were housed in cages with a standard light cycle (12-h light, 12-h dark), at room temperature (22 ± 4 °C), with a relative humidity of 30–70%. Mice were identified by numbers on the cage cards. After arrival, mice were fed on a normal diet (Harlan Teklad diet 2014). Mice were randomized to treatment groups (n = 5 per group, unless otherwise noted) by body weight and baseline plasma Lp(a) concentration using a block randomized allocation tool (BRAT) for the study. In an example Lp(a) transgenic mouse study in which 66 mice were prescreened for baseline Lp(a) levels, the average Lp(a) level was 45 ± 1.8 µg ml^−1 (range 20–78 µg ml^−1). Mice were dosed with various compounds in vehicle (10 ml kg^−1, 1% hydroxyethyl cellulose (HEC), 0.25% Tween-80, Antifoam) or with vehicle alone as a control orally BID for five days. Blood samples were collected by tail bleeds at designated times, and Lp(a) levels were determined by ELISA by an investigator who was blinded to group allocation. In brief, lipoprotein particles were captured by a goat anti-Lp(a)-antibody-coated plate (Abcam ab31675, diluted 1:12,500 in HEPES-buffered saline), the plates were washed and samples were detected using an HRP-conjugated goat anti-apoB antibody (Abcam ab27622, diluted 1:3,000). Colorimetric peroxidase substrate 3,3’,5,5’-TMB was added, and the reaction was stopped using 1 N sulfuric acid. Absorbance at 450 nm was read on a Molecular Devices SpectraMax plate reader. Blood samples were collected at four hours after dosing on day 5 of dosing to confirm exposure. Full pharmacokinetic (PK) profiles were not evaluated. Concentrations of compounds were evaluated from dried blood spots through a non-Good Laboratory Practice (GLP) liquid chromatography with tandem mass spectrometry (LC–MS/MS) assay. Data were analysed in GraphPad Prism v.9.5.1

[2] = 2mpk BID, Day 1, individual cynos
[3] = 2mpk BID, Day 3, individual cynos
[4] = 2mpk BID, Day 5, individual cynos
[5] = 2mpk BID, Day 9, individual cynos
[6] = 2mpk BID, Day 14, individual cynos
[7] = 10mpk BID, Day 1, individual cynos
[8] = 10mpk BID, Day 3, individual cynos
[9] = 10mpk BID, Day 5, individual cynos
[10] = 10mpk BID, Day 9, individual cynos
[11] = 10mpk BID, Day 14, individual cynos

SMILES: Cl.Cl.O=C(Nc1cccc(C[C@H](C(=O)O)[C@H]2CCNC2)c1)Nc1cccc(C[C@H](C(=O)O)[C@H]2CCNC2)c1 [LSN3441732]
- pCFB (pct chng from baseline, Lp(a)) (Lp(a); [2]): -0.8715 pct and -9.178 pct and 9.115 pct and 2.958 pct and -14.9999 pct and -4.998 pct and -4.507 pct and 6.837 pct
- Lp(a) (Lp(a); [2]): 66.699 and 27.339 and 53.349 and 76.924
- pCFB (pct chng from baseline, Lp(a)) (Lp(a); [3]): -26.3908 pct and -7.214 pct and -20.0294 pct and -41.4028 pct and -34.8821 pct and 12.2337 pct and -15.3593 pct and -16.4032 pct
- Lp(a) (Lp(a); [3]): 59.119 and 21.392 and 39.615 and 78.588
- pCFB (pct chng from baseline, Lp(a)) (Lp(a); [4]): -60.4222 pct and -23.7562 pct and -53.193 pct and -73.9823 pct and -52.767 pct and 10.0362 pct and -38.056 pct and -25.4812 pct
- Lp(a) (Lp(a); [4]): 43.266 and 19.069 and 21.3 and 64.577
- pCFB (pct chng from baseline, Lp(a)) (Lp(a); [5]): -46.3414 pct and -22.6794 pct and -48.3056 pct and -58.1644 pct and -48.9556 pct and 33.2038 pct and -34.8562 pct and -42.8477 pct
- Lp(a) (Lp(a); [5]): 45.501 and 14.625 and 28.878
- pCFB (pct chng from baseline, Lp(a)) (Lp(a); [6]): -26.8256 pct and -20.2744 pct and -41.4618 pct and -48.6082 pct and -43.1214 pct and 61.8786 pct and -34.6787 pct and -24.6097 pct
- Lp(a) (Lp(a); [6]): 24.162 and 45.625 and 19.292 and 39.381
- Lp(a) (Lp(a); 2mpk BID, Day -1 (pre-dose), individual cynos): 76.499 and 27.63 and 59.314 and 80.73
- Lp(a) (Lp(a); 2mpk BID, Day -14 (pre-dose), individual cynos): 63.195 and 23.549 and 48.322 and 88.666
- pCFB (pct chng from baseline, Lp(a)) (Lp(a); [7]): 6.085 pct and 18.5121 pct and 11.2235 pct and -12.4022 pct and 3.527 pct and -18.0886 pct and 0.3688 pct and -16.5769 pct
- Lp(a) (Lp(a); [7]): 42.107 and 61.295 and 35.316 and 53.315 and 65.761 and 52.068 and 17.81 and 84.78
- pCFB (pct chng from baseline, Lp(a)) (Lp(a); [8]): -30.0594 pct and -45.1266 pct and -34.624 pct and -67.6349 pct and -34.8372 pct and -50.8715 pct and -17.9315 pct and -61.9012 pct
- Lp(a) (Lp(a); [8]): 19.23 and 40.411 and 16.352 and 31.338 and 24.297 and 32.773 and 10.682 and 69.322
- pCFB (pct chng from baseline, Lp(a)) (Lp(a); [9]): -74.5889 pct and -41.8647 pct and -61.4356 pct and -52.9091 pct and -78.302 pct and -39.7105 pct and -69.6086 pct and -32.2067 pct
- Lp(a) (Lp(a); [9]): 12.826 and 33.59 and 11.492 and 22.573 and 16.289 and 30.322 and 6.608
- pCFB (pct chng from baseline, Lp(a)) (Lp(a); [10]): -56.8372 pct and -40.6982 pct and -59.7007 pct and -36.5829 pct and -68.9989 pct and -34.2069 pct and -69.9581 pct and 8.689 pct
- Lp(a) (Lp(a); [10]): 21.786 and 34.264 and 12.009 and 30.399 and 23.273 and 33.09 and 6.532
- pCFB (pct chng from baseline, Lp(a)) (Lp(a); [11]): -44.94 pct and -47.7665 pct and -60.9759 pct and -27.3662 pct and -62.6383 pct and -7.387 pct and -32.53 pct and -7.053 pct
- Lp(a) (Lp(a); [11]): 27.791 and 30.18 and 11.629 and 34.817 and 28.048 and 46.579 and 14.67
- Lp(a) (Lp(a); 10mpk BID, Day -1 (pre-dose), individual cynos): 51.607 and 58.876 and 34.406 and 53.514 and 88.739 and 49.824 and 82.77 and 24.664
- Lp(a) (Lp(a); 10mpk BID, Day -14 (pre-dose), individual cynos): 49.341 and 56.682 and 25.193 and 42.356 and 61.404 and 86.167 and 50.764 and 18.822
- Mean_pCFB (Lp(a); 2mpk BID, day 1): -1.96
- Mean_pCFB_vs_Veh (Lp(a); 2mpk BID, day 1): -1.99
- Mean_pCFB (Lp(a); 2mpk BID, day 3): -18.68
- Mean_pCFB_vs_Veh (Lp(a); 2mpk BID, day 3): -8.97
- Mean_pCFB (Lp(a); 2mpk BID, day 5): -39.7
- Mean_pCFB_vs_Veh (Lp(a); 2mpk BID, day 5): -22.16
- Mean_pCFB (Lp(a); 2mpk BID, day 9): -33.62
- Mean_pCFB_vs_Veh (Lp(a); 2mpk BID, day 9): -19.16
- Mean_pCFB (Lp(a); 2mpk BID, day 14): -22.21
- Mean_pCFB_vs_Veh (Lp(a); 2mpk BID, day 14): -17.15
- Mean_pCFB (Lp(a); 10mpk BID, day 1): -0.92
- Mean_pCFB_vs_Veh (Lp(a); 10mpk BID, day 1): -0.95
- Mean_pCFB (Lp(a); 10mpk BID, day 3): -42.87
- Mean_pCFB_vs_Veh (Lp(a); 10mpk BID, day 3): -33.16
- Mean_pCFB (Lp(a); 10mpk BID, day 5): -56.33
- Mean_pCFB_vs_Veh (Lp(a); 10mpk BID, day 5): -38.79
- Mean_pCFB (Lp(a); 10mpk BID, day 9): -44.79
- Mean_pCFB_vs_Veh (Lp(a); 10mpk BID, day 9): -30.33
- Mean_pCFB (Lp(a); 10mpk BID, day 14): -36.33
- Mean_pCFB_vs_Veh (Lp(a); 10mpk BID, day 14): -31.27
- maximum decrease of median Lp(a) levels (Lp(a); 2 mg kg^−1 oral BID): 45%
- %Lp(a) max decrease (dose, mg/kg) (Lp(a); 2 mg/kg BID): 40%
- maximum decrease of median Lp(a) levels (Lp(a); 10 mg kg^−1 oral BID): 57%
- %Lp(a) max decrease (dose, mg/kg) (Lp(a); 10 mg/kg BID): 56%
- concentration at 4 h ([1]; oral 1 mg/kg): 147 ± 126 nM
- concentration at 4 h ([1]; oral 3 mg/kg): 432 ± 203 nM
- concentration at 4 h ([1]; oral 10 mg/kg): 465 ± 167 nM
- concentration at 4 h ([1]; oral 30 mg/kg): 625 ± 184 nM

Source: article PMC11111404, “Discovery of potent small-molecule inhibitors of lipoprotein(a) formation” (Nature, 2024)
